Tests used:
[1] = tested on: Lipid Peroxidation (brain homogenate auto-oxidation); experiment: Brain homogenate auto-oxidation test (lipid peroxide production inhibition, thiobarbituric acid method); type: biochemical; conditions: for IC50: value in parentheses, read-out: Inhibitory Activities on Lipid Peroxidation IC50
Source text: [formula] Moreover, f: Purity of reference standard (%)/100 6) Brain Homogenate Auto-oxidation Test
Determined via a thiobarbituric acid method that was based on the method of Ohkawa, et al. (Reference Document 2)

[2] = 1,1-Diphenyl-2-picrylhydrazyl (DPPH) radical scavenging test; conditions: for EC50: value in parentheses, read-out: DPPH Radical Scavenging Activities EC50
Source text: 7) 1,1-Diphenyl-2-picrylhydrazyl (DPPH) Radical Scavenging Test
Determined based on the method of Blois, et al. (Reference Document 3)

sucrase = sucrase (Homo sapiens, UniProt P14410); experiment: Glycosidase inhibitory activity test, sucrase; type: biochemical
Source text: (§1) 8) Glycosidase Inhibitory Activity Test
(§2) Determined via a method whereby α-amylase, maltase, and sucrase inhibitory activities were all disclosed in the abovementioned report (Non-Patent Document 1).

α-amylase = experiment: Glycosidase inhibitory activity test, amylase; type: biochemical
Source text: as §1, §2

maltase = experiment: Glycosidase inhibitory activity test, maltase; type: biochemical
Source text: as §1, §2

[3] = tested on: blood glucose level after maltose-loading; experiment: Hyperglycemic inhibitory action after maltose-loading in rat; type: in vivo, SD (IGS) rat; conditions: for ΔAUC of blood glucose / ΔCmax of blood glucose: maltose 1 g/kg gavage
Source text: • 1) Test Substance: With regard to TCAA, Yacon hot water extract was passed through an HP-20 column chromatograph, then eluted with water, and finally eluted with 50% methanol to obtain a polyphenol fraction. This fraction was separated by being passed through a Sephadex LH-20, and eluted with 40% methanol/water, so that the total amount of TCAA contained therein was recovered during confirmation of TCAA with HPLC. Then, the rough TCAA fraction was passed through a HW-40 column chromatograph, separated with 40% methanol/water during confirmation of TCAA with HPLC in a similar manner, and components other than TCAA were removed. […] Moreover, the maltose employed was purchased from Wako Pure Chemical Industries, Ltd. • 2) Animals: One group of five SD (IGS) 7 week old male rats was employed. 2. Experimental Method • 1) Configuration of the Treatment Group • (1) Control Group (Maltose Only) • (2) Maltose+TCAA (600 mg/kg×2) • (3) Maltose+TCAA (300 mg/kg×2) • (4) Maltose+TCAA (150 mg/kg×2) • 2) Preparation of Test Substance
Maltose was weighed to an amount of 1.5 g, dissolved in 15 ml of distilled water, and administered by gavage at a dosage of 1 g/10 ml/kg. Then TCAA was administered in two doses, a first dosage in which it was administered in a maltose solution, and then a second dosage in which it was dissolved in distilled water, with both dosages being at ratios of 150 mg/10 ml, 300 mg/10 ml, and 600 mg/10 ml, respectively, and administration thereof by gavage at a dosage of 10 ml/kg.
After blood samples were collected from rats that fasted for 17 hours prior to administration of the test substance (0 time), the test substance was administered. Fifteen minutes later the second dosage was administered, with blood samples being taken soon thereafter (specifically, 15 minutes later), 30 minutes thereafter, 45 minutes thereafter, 60 minutes thereafter, 90 minutes thereafter, and 120 minutes thereafter, respectively, and then blood glucose levels being measured with a Glucocard (Aventis Pharma, Limited).
When measuring blood glucose levels at the times that each of the samples were collected, the change in blood glucose (A) was calculated by subtracting the blood glucose level prior to the administration (0 time) from the blood glucose levels after the administration of the test substance, and determining the maximum serum concentration (ΔCMAX) and area under the blood glucose curve (ΔAUC).
The blood glucose values obtained by the present experiment were averaged, the standard error of the mean was calculated, and a two-group comparison was made with the control group. The statistical test method was via the Bartlett method, with the variance of the measured values being statistically verified within a 95% confidence limit, and the Student's t-test only being conducted in cases of equal variance, to determine that p<0.05 was a statistically significant change.

[4] = comparative molar concentrations
[5] = TCAA 150 mg/kg × 2, mean ± SE, n = 5
[6] = TCAA 300 mg/kg × 2, mean ± SE, n = 5

Chain of sucrase (P14410 whole entry, species assumed): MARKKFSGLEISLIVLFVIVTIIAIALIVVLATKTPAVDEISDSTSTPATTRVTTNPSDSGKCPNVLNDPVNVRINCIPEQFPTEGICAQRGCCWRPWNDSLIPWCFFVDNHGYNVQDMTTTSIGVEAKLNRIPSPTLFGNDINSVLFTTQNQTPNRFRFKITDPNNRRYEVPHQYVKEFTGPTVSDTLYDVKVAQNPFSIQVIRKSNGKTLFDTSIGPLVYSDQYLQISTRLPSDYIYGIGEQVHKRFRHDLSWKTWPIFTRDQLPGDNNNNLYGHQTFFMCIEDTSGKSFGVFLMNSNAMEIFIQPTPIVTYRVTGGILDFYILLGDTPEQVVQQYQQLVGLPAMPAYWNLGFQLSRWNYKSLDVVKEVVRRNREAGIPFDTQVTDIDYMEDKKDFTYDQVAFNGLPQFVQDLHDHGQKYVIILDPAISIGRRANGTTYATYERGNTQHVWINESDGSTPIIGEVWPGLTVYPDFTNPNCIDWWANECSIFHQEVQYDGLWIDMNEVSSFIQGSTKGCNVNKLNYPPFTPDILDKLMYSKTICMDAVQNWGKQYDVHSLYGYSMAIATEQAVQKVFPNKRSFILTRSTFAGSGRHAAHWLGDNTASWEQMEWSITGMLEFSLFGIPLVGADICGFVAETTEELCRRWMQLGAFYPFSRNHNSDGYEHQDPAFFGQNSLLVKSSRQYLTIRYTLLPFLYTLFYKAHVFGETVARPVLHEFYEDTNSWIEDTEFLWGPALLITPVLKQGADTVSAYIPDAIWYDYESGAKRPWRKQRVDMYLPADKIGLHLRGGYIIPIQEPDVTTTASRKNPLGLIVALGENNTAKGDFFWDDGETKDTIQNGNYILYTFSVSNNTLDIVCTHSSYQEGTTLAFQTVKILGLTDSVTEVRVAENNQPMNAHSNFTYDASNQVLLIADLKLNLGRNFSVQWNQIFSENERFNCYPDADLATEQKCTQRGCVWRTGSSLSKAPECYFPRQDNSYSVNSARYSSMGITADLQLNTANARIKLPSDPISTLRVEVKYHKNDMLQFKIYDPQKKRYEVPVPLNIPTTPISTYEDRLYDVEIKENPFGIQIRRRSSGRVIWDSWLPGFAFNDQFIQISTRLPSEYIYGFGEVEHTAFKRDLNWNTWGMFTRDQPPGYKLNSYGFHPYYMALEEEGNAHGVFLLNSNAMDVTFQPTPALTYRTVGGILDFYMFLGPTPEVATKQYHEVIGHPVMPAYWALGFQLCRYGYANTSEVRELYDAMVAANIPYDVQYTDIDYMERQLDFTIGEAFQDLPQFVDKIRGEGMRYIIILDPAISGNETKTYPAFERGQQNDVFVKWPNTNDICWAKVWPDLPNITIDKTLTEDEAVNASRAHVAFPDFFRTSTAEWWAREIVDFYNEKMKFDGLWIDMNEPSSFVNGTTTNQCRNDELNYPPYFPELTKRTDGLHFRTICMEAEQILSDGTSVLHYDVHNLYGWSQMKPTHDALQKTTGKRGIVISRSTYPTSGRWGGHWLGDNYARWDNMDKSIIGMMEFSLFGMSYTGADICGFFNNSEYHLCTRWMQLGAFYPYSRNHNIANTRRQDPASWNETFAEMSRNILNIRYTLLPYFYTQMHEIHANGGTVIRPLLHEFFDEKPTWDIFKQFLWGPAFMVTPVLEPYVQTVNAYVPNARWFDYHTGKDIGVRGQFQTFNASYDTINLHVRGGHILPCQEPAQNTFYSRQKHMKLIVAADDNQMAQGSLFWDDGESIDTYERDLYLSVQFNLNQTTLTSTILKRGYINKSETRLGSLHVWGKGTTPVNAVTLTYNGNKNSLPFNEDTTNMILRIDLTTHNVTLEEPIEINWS

Inhibitory Activities on Lipid Peroxidation IC50 [1] [µg/mL]	IC50 [1] [µM]	DPPH Radical Scavenging Activities EC50 [2] [µg/mL]	EC50 [2] [µM]	Compound	also measured
9.97	55.3	4.39	24.3	O=C(O)/C=C/c1ccc(O)c(O)c1 [caffeic acid]	
71.24	166	5.65	13.1	Cc1c(C)c2c(c(C)c1O)CC[C@@](C)(CCC[C@H](C)CCC[C@H](C)CCCC(C)C)O2 [α-tocopherol]	
1.48	2.87	0.91	1.76	O=C(/C=C/c1ccc(O)c(O)c1)O[C@@H]1[C@H](O)C[C@@](O)(C(=O)O)C[C@H]1OC(=O)/C=C/c1ccc(O)c(O)c1 [3,4-DCQA, 3,4-dicaffeoylquinic acid]	
0.56	1.85	0.51	1.69	O=c1oc2c(O)c(O)cc3c(=O)oc4c(O)c(O)cc1c4c23 [ellagic acid]	
2.18	4.23	0.87	1.69	O=C(/C=C/c1ccc(O)c(O)c1)O[C@@H]1C[C@](O)(C(=O)O)C[C@@H](OC(=O)/C=C/c2ccc(O)c(O)c2)[C@H]1O [3,5-DCQA]	
13.69	47.2	1.56	5.37	(±)-catechin	
13.21	37.3			O=C(/C=C/c1ccc(O)c(O)c1)O[C@@H]1C[C@](O)(C(=O)O)C[C@@H](O)[C@H]1O [chlorogenic acid]	

Compound	Inhibitory Activities on Lipid Peroxidation IC50 [1] [µg/mL]	IC50 [1] [µM]	DPPH Radical Scavenging Activities EC50 [2] [µg/mL]	EC50 [2] [µM]	also measured
O=C(/C=C/c1ccc(O)c(O)c1)O[C@H]1[C@H](O)C[C@](O)(C(=O)O)C[C@H]1OC(=O)/C=C/c1ccc(O)c(O)c1 [4,5-DCQA]	3.38	6.55	0.89	1.72	
2,3,5-tricaffeoylaltraric acid, or 2,4,5-tricaffeoylaltraric acid [TCAA]	0.49	0.7	0.69	0.99	lipid peroxide production inhibitory activity, times greater than that of (±)-catechin [1, 4]: 68 times; lipid peroxide production inhibitory activity, times greater than that of ellagic acid [1, 4]: 2.5 times; sucrase inhibitory activity IC50 (sucrase): > 1000 µg/mL; amylase inhibitory activity IC50 (α-amylase): 420 µg/mL; maltase inhibitory activity IC50 (maltase; TCAA isolated in Example 1): 49 µg/mL; maltase inhibitory activity IC50 (maltase; TCAA test substance of Example 4, purity 91%): 61 µg/mL; maltase inhibitory activity compared to an acarbose control (maltase; fraction of acarbose activity): 1/19; blood glucose 90 minute values compared to control group ([3]; 600 mg/kg TCAA group): obvious increase; increase in blood glucose via maltose-loading at 15 minutes ([3]; each TCAA dosage group (150, 300, 600 mg/kg × 2) vs control, p<0.01): significantly inhibited; ΔAUC of blood glucose [3, 5]: 5834 ± 484 mg·min/dL; ΔCmax of blood glucose [3, 5]: 86 ± 9 mg/dL; ΔAUC of blood glucose [3, 6]: 5456 ± 249 mg·min/dL; ΔCmax of blood glucose [3, 6]: 84 ± 5 mg/dL; ΔAUC of blood glucose ([3]; TCAA 600 mg/kg × 2, mean ± SE, n = 5): 5495 ± 300 mg·min/dL; ΔCmax of blood glucose ([3]; TCAA 600 mg/kg × 2, mean ± SE, n = 5, p < 0.05 vs control): 73 ± 3 mg/dL
